Reference: US20050208542A1, “Methods of genotoxicity screening, and biosensors” (priority 2004, published 2005)

What was measured:
[1] = system: ds-CT DNA; test: ECL/SWV of (Ru-PVP/ds-DNA)2 films after incubation; details: saturated solution, 37° C., pH 5.5
Method: Film assembly. DNA-redox polymer films were constructed by the layer-by-layer electrostatic assembly method. Basal plane PG electrodes were polished with 400 grit SiC paper and then with 0.3 μm α-alumina slurries on Buehler Microcloth, washed with water, sonicated in ethanol for 15 minutes, and then sonicated in water for 15 minutes. Layers were constructed by placing a 30 μL drop of 0.2% aqueous [Ru(bpy)2(PVP)10](CIO4)2 onto each PG electrode, allowing 15 minutes to achieve saturated adsorption and then washing with water. Subsequently, 30 μL of DNA solution (2 mg mL^−1 DNA in 5 mM pH 5.5 acetate buffer+0.05 M NaCl) was place on this PG surface, allowed to adsorb 15 min, and then washed with water. This sequence was repeated to obtain films with 2 redox polymer/DNA bilayers. Films containing ss-DNA and other polynucleotides were also assembled in this way. Assembly of films was monitored at each step with a quartz crystal microbalance.
Reactions with Styrene Oxide. Incubations of films were done in styrene oxide solutions in a stirred reactor at 37.0±0.5° C. […] PG electrodes coated with polynucleotide or DNA films were incubated in the stirred emulsion and then rinsed with water and transferred to the electro-chemical cell containing pH 5.5 buffer for SWV/ECL analysis.
Error bars in FIGS. 22, 23 are mainly the result of electrode-to-electrode variability.

[2] = system: poly[G]; test: ECL/SWV of (Ru-PVP/poly[G])2 films after incubation; format: biochemical; details: 10 minutes incubation, saturated solution
Method: Reactions with Styrene Oxide.
In addition to catalytic oxidation of guanines, it is possible that adducts formed on DNA by reaction with styrene oxide could be catalytically oxidized by the ruthenium metallopolymer. To assess this possibility, styrene oxide was incubated with films containing individual polynucleotides and the metallopolymer. […] An 80% increase in SWV peak current and a 40% increase in ECL intensity was found.

[3] = system: ST ds-DNA; test: Capillary electrophoretic analysis of hydrolyzed DNA reacted with styrene oxide; format: biochemical, salmon testes; details: (PDDA/DNA)2 film on carbon cloth, saturated styrene oxide, 48 hr, 37° C., compared with undamaged hydrolyzed DNA
Method: (§1) Capillary electrophoretic analysis. A Beckman PACE 5000 with UV detector at 254 nm was used for capillary electrophoresis (CE) to analyze hydrolyzed DNA that had been reacted with styrene oxide. 1 mg mL^−1 ST ds-DNA in 50 mL buffer or (PDDA/DNA)2 films on 3×10 cm carbon cloth in solution were reacted in 50 mL buffer and 0.87 mmol styrene oxide at 37° C. with stirring. Reacted DNA in solution or in films was hydrolyzed by incubating with deoxyribonuclease I (0.1 mg per mg of DNA) for 20 hr at 37° C., followed by incubation with phosphodiesterase I (0.01 unit/mg DNA) and phosphatase, alkaline (0.6 unit/mg DNA) for 5 hours at 37° C. The resulting samples, consisting mainly of individual nucleosides, were analyzed using CE with 20 mM pH 7 phosphate buffer and 100 mM SDS. The capillary was 75 μm×50 cm, with a polyimide coating. To make standard styrene oxide adducts, 0.5 mg mL^−1 guanosine or adenosine were reacted with styrene oxide.
It was previously shown that that styrene oxide is formed from styrene using Mb and cyt P450cam films. However, available capillary electrophoresis and HPLC-MS/MS methods were not sensitive enough to detect and identify damaged DNA directly from the protein-DNA films. Thus, capillary electrophoresis and HPLC-MS were used to confirm that reaction of styrene oxide with DNA in (PDDA/DNA)2 films and in solution gave the reported DNA-styrene oxide adducts. […]

[4] = system: ds-ST-DNA; test: HPLC-MS/MS of hydrolyzed DNA reacted with styrene oxide; format: biochemical, salmon testes; details: ds-ST-DNA incubated with styrene oxide 48 hours at 37° C., HPLC-MS/MS (MRM)
Method: as §1
Liquid chromatography (LC)-mass spectrometry (MS). A Perkin-Elmer LC with diode-array (255 nm and 280 nm) and mass spectrometer (Micromass, Quattro II) detection were used. Full-scan spectra were taken at low cone voltage (15 V) in the positive ion mode (ESI). The HPLC column was Restek Ultra C-18 reversed-phase (i. d. 2.1 mm, length 10 cm, particle size 5 μm). Solvents were A: 5% acetonitrile/95% water with 0.05% TFA and B: 100% acetonitrile with 0.05% TFA. […]

[5] = system: ds-DNA; test: SWV with Co(bpy)3^3+ electroactive probe, PDDA/ds-DNA(/Mb/ds-DNA)2 films; format: biochemical, calf thymus (CT), salmon testes (ST)
Method: (§2) Film construction. Films were grown on PG disks (pyrolytic graphite) that had been abraded on 400 grit SiC paper, then with coarse Emery paper (3M Crystal Bay), then ultrasonicated in water for 30 seconds. Layers of ds-DNA and protein were adsorbed alternately for 15 minutes onto the rough PG electrodes, and washed with water between adsorption steps. Adsorbate solutions were: (a) 2 mg mL^−1 DNA in 5 mM pH 7.1 TRIS buffer and 0.50 M NaCl; (b) 2 mg mL^−1 PDDA in 50 mM NaCl; (c) 3 mg mL^−1 Mb in 10 mM pH 5.5 acetate buffer; and (d) 1 mg mL^−1 cyt P450cam in the pH 5.5 buffer. Film of architecture denoted PDDA/DNA(/Mb/DNA)2 or PDDA/DNA(/cyt P450cam/DNA)2 were employed.
(§3) Incubation of DNA/protein films for metabolite generation and reaction with DNA was done in a thermostated vessel at 37° C. containing 1-4% styrene (by volume). To activate the enzymes for styrene oxide formation, 0.2 to 2 mM H2O2 was added to 10 mL pH 5.5 buffer containing 50 mM NaCl. […] For the probe binding method, washed electrodes were transferred to pH 5.5 buffer containing 20 μM Co(bpy)3^3+.
(§4) Voltammetry. CH Instruments 660A and CH 430 electrochemical analyzers were used for square wave voltammetry (SWV), with ˜95% ohmic drop compensated. […]
(§5) The time course of the reaction can readily be monitored via the ratio of initial SWV peak current for a given film (Ip,i) to that after reaction (Ip,f). […]

[6] = system: ds-CT-DNA; test: SWV with Co(bpy)3^3+ electroactive probe, PDDA/ds-CT-DNA(cyt P450cam/ds-CT-DNA)2 films; details: 4% styrene + 2 mM H2O2
Method: as §2, §3
CH Instruments 660A and CH 430 electrochemical analyzers were used for square wave voltammetry (SWV), with ˜95% ohmic drop compensated. […]
as §5

[7] = system: ST-ds-DNA; test: Catalytic SWV with Ru(bpy)3^2+ of DNA(Cyt P450cam/ST-ds-DNA)2 films after incubation
Method: as §2
Incubation of DNA/protein films for metabolite generation and reaction with DNA was done in a thermostated vessel at 37° C. containing 1-4% styrene (by volume). To activate the enzymes for styrene oxide formation, 0.2 to 2 mM H2O2 was added to 10 mL pH 5.5 buffer containing 50 mM NaCl. After incubation, the electrodes were rinsed with water and transferred to pH 5.5 buffer containing 50 μM Ru(bpy)3^2+ for analysis by catalytic SWV.
as §4

[8] = system: ds-DNA; test: Catalytic SWV with Ru(bpy)3^2+ of PDDA/ds-DNA(/Mb/ds-DNA)2 films after incubation; format: biochemical, calf thymus (CT), salmon testes (ST)
[9] = system: CT-ds-DNA; test: SWV of Ru/Mb/DNA films (PSS/ClRu-PVP/CT-ds-DNA/(Mb/CT-ds-DNA)2) after incubation; details: for SWV peak current at 0.75 V: saturated styrene or toluene and H2O2, pH 5.5
Method: Film Assembly. Basal plane PG electrodes were polished with 400-grit SiC paper and then ultrasonicated for 30 seconds each in ethanol and then in water. Electrodes were dried in nitrogen and dipped into 6 mg mL^−1 PSS containing 0.5 M NaCl for 15 min. After washing with water, these PG electrodes were then dipped into 0.05% (m/V) [Ru(bpy)2(PVP)10Cl)]Cl (denoted hereafter as CIRu-PVP) in 5% ethanol/water for 15 minutes. Adsorption for 15 min provides steady-state adsorption of PSS on oppositely charged surfaces.^18, 19
After fabricating PSS/CIRu-PVP films, electrodes were dipped into 2 mg mL^−1 CT ds-DNA in pH 7.0 Tris buffer containing 0.5 M NaCl for 15 min, rinsed with water, and then dipped into 2 mg mL^−1 PDDA. Alternate adsorption cycles were repeated until the desired number of layers were made. Final film structure is denoted as PSS/CIRu-PVP/CT-ds-DNA/PDDA/CT-ds-DNA.
For films containing Mb, PG electrodes were abraded with 400-grit SiC paper, rinsed with water, further roughened using medium Crystal Bay emery paper (PH4 3M 001K), and then ultrasonicted in ethanol and water successively for 30 seconds. […] Additional steps were the same as above except PDDA was replaced with 3 mg mL^−1 Mb in pH 5.5 buffer. Final film structure is denoted as PSS/CIRu-PVP/CT-ds-DNA/(Mb/CT-ds-DNA)2. Electrochemical surface area was estimated at 0.21 cm^2 using peak currents of soluble ferricyanide and the Randles-Sevcik equation.
H2O2 activates Mb to oxidize styrene to styrene oxide.

SMILES | ECL peak vs. incubation time [1] | SWV peak vs. incubation time [1] | Increase in ECL intensity [2] | Increase in SWV peak current [2] | DNA-styrene oxide adduct peaks in capillary electropherogram [3] | Number of styrene oxide adducts each for dA and dG [4] | Ip,i/Ip,f peak current ratio vs. reaction time ([5]; Mb films, 4% styrene or 4% toluene + 2 mM hydrogen peroxide, over 45 min) | SWV peak height for reduction of Co(bpy)3^3+ at 0.04 V vs. SCE ([5]; Mb/ST-ds-DNA films, 4% styrene and 2 mM H2O2, 37° C., pH 5.5, 20 μM Co(bpy)3^3+) | Slope of Ip,i/Ip,f peak ratio vs. time, compared with Mb films [6] | Rate of increase of SWV peak current, less than with Mb/ST-DNA films ([7]; cyt P450cam films versus Mb/ST-DNA films, styrene and hydrogen peroxide) | SWV catalytic peak current (DNA damage) ([7]; cyt P450cam/ST-ds-DNA films, 2% styrene + 0.2 mM H2O2, 50 μM Ru(bpy)3^2+) | Dependence of catalytic SWV peak height on styrene concentration ([8]; Mb/DNA films activated by H2O2, styrene 1-4%) | Catalytic SWV oxidation peak current (DNA damage) ([8]; Mb/DNA films, 37° C., pH 5.5, with 0.2 mM H2O2, 2% styrene, 2% toluene or 0.2 mM benzaldehyde, read in 50 μM Ru(bpy)3^2+) | Catalytic SWV oxidation peak current (DNA damage) ([8]; ST-DNA/Mb films, 2% styrene but no H2O2) | Ratio of final peak current after incubation to initial peak current ([9]; saturated styrene and H2O2, pH 5.5) | SWV peak current at 0.75 V [9]
c1ccc(C2CO2)cc1 (stereo not drawn) [styrene oxide] | increases in the ECL and the SWV peaks were observed with increasing incubation time | increases in the ECL and the SWV peaks were observed with increasing incubation time | 40% | 80% | new peaks evident | at least 4 |  |  |  |  |  |  |  |  |  | 
C=Cc1ccccc1 [styrene] |  |  |  |  |  |  | linear increases | decreased with incubation time | smaller slopes | about 30% | rapid increase in SWV peak current for the first five minutes was followed by a slower increase from 5-30 minutes | did not depend on styrene concentration between 1-4% | increased with reaction time | No significant increases in peak current or trends with incubation time | showed an increase over the first 15 minutes and then decreased gradually | increased
Cc1ccccc1 [toluene] | showed no trends with incubation time | showed no trends with incubation time | nearly identical to initial values | nearly identical to initial values |  |  |  |  |  |  |  |  |  |  |  | did not show increases
